Data published in patent US11478469B2, “Combination product of BCL-2 inhibitor and MDM2 inhibitor and use thereof in the prevention and/or treatment of diseases” (ASCENTAGE PHARMA (SUZHOU) CO., LTD., priority 2018, dated 2022).

Assays:
[1] = tested on: MV-4-11 (acute myeloid leukemia (AML)); assay: CellTiter-Glo (CTG) cell proliferation assay, MV-4-11; type: cell-based; conditions: Homo sapiens, MV4-11; MV-4-11, single agent alone, 24 hours; read-out: IC50 for inhibition of proliferation
Experimental: Anti-proliferative effects were tested by CellTiter-Glo® (CTG) assay. Cells were seeded in 96-well plates and treated with different concentrations of test substance for 24 hours. […] Each test dose was tested with 3 replicate wells. Usually, 9 series of doses of the test substance were selected, and added to 96-well plates, 5 μl/well. For the combination experiment, the final volume of the two test substances was 5 μl/well. Each test dose was tested with 3 replicate wells. On the same plate, 3-6 wells were selected and added with 100 μl of dilution solution as a control group, and another 3-6 wells were used as a blank control. […] After mixing on a shaker for 2 minutes, leaving at room temperature for 10 minutes, the fluorescence value was read by using a Biotek synergy HIMF plate reader. […] For the combination test, the cell viability was calculated by normalizing the average OD value of 3 duplicate wells of the single drug control. […] Cell viability (%) values of Compound 6 alone and the combination of Compound 6 and APG-115 in the following malignant tumor cells were determined in the CTG experiment: OCI-AML-3 (acute myeloid leukemia (AML)), MV-4-11 (acute myeloid leukemia (AML)), KMS-26 (multiple myeloma (MM)), KMS-11 (multiple myeloma (MM)).

[2] = tested on: human OCI-AML-3 (AML) mouse xenograft tumor; assay: Human OCI-AML-3 AML mouse xenograft tumor model; type: in vivo; conditions: for antitumor effect in words: 11 days of administration, Compound 6 25 or 100 mg/kg qd, APG-115 100 mg/kg (d1-d4) and 50 mg/kg (d5-d11) q2d
Description: (§1) A subcutaneous xenograft tumor model of human tumor immunodeficient mice was established by cell inoculation (see: Gould S E et al. Translational value of mouse models in oncology drug development. Nature medicine. 2015 21, 431-439; and, Souers A J et al. ABT-199, a potent and selective BCL-2 inhibitor, achieves antitumor activity while sparing platelets. Nature medicine. 2012 19.202-208): tumor cells in logarithmic growth phase were collected, counted and resuspended in 1×PBS, and the cell suspension concentration was adjusted to 2.5-5×10^7/mL. Using a 1 mL syringe ([…]), the tumor cells were inoculated subcutaneously in the right side of immunodeficient mice, 5-10×106/0.2 mL/mouse (experimental animals were purchased from Beijing Vital River Laboratory Animal Technology Co., Ltd. SCXK (Beijing) 2016-0006). All animal experiments were strictly in accordance with the laboratory animal use and management practices of GenePharma Co., Ltd. and Ascentage Pharma Group Co., Ltd. The calculation of relevant parameters referred to the Chinese CFDA “Guidelines for Non-Clinical Research Techniques of Cytotoxic Antitumor Drugs”.
(§2) Animal body weight and tumor size were measured twice a week during the experiment. The conditions and death of the animals were observed every day. Routine monitoring included the effects of tumor growth and treatment on normal animal behaviors, including activity, feeding and drinking situations, weight gain or loss, eyes, coat and other abnormalities in the experimental animals. The deaths and clinical symptoms observed during the experiment were recorded in the raw data. The entire operations of administration, measurement of mouse body weight and tumor volume were performed in a clean bench. Plasma and tumor tissues were collected, weighed and photographed after the end of the last administration according to the experimental protocol. Plasma and tumor samples were frozen and stored at −80° C.
(§3) Tumor volume (TV) was calculated as: TV=a×b2/2, in which a and b represented the length and width of the tumor as measured, respectively. The relative tumor volume (RTV) was calculated as: RTV=Vt/V1, in which V1 was the tumor volume at the time of grouping and administration, and Vt was the tumor volume measured on a day after administration. The evaluation index of anti-tumor activity was the relative tumor proliferation rate T/C (%), which was calculated as: relative tumor proliferation rate T/C (%)=(TRTV/CRTV)×100%, in which TRTV was the RTV of the treatment group, CRTV was the RTV of the vehicle control group; tumor remission rate (%) was calculated as: (the number of SD (stable disease), PR (tumor partial regression) and CR (tumor complete regression) in the tumor-bearing mice after treatment)/the total number of mice in the group×100%. Change of body weight %=(measured body weight−body weight at the time of grouping)/body weight at the time of grouping×100%.
(§4) The synergistic analysis was performed by the following formula (Gould S E et al. Translational value of mouse models in oncology drug development. Nature medicine. 2015 21, 431-439): synergy factor=((A/C)×(B/C))/(AB/C); A=RTV value of the group administered with A only; B═RTV value of the group administered with B only; C=RTV value of the vehicle control group; AB=RTV value of the group administered with A and B in combination (Clarke R. Issues in experimental design and endpoint analysis in the study of experimental cytotoxic agents in vivo in breast cancer and other models [J]. Breast Cancer Research & Treatment, 1997, 46(2-3): 255-278).
(1) The experimental method was as described in Section (2) of Example 1. […] Therefore, a mouse xenograft tumor model was further established using the OCI-AML-3 tumor cell line to evaluate the in vivo anti-tumor effects of Compound 6 and APG-115. […]

[3] = tested on: human MV-4-11 AML xenograft; assay: MV-4-11 AML xenograft in Balb/c nude mice; type: in vivo, mouse; conditions: for Response rate @D 22: mPD (progressive disease) / Best response rate: mPD (progressive disease): compound 6 100 mg/kg and/or APG-115 100 mg/kg, mice per group; for Response rate @D 22: mPD (progressive disease) / RTV @ D 22 / T/C (%) @ D 22: day 22; for RTV @ D 22 / T/C (%) @ D 22: compound 6 100 mg/kg p.o. qd×22 d and/or APG-115 100 mg/kg orally daily d1-7 and d16-22
Description: as §1, §2, §3, §4
(1) The experimental method was as described in Section (2) of Example 1. Compound 6 is a selective BCL-2 inhibitor developed by the Ascentage Pharma Group. The agent is currently under clinical development for cancer therapy both in China and in the US. Enhanced anti-proliferation activity of APG-115 in combination with compound 6 has been observed in cell-based assay in AML cell lines in vitro. […]

[4] = APG-115 50 mg/kg alone (text: 100 mg/kg d1-d4, 50 mg/kg d5-d11, q2d)
[5] = Compound 6 25 mg/kg qd, alone or with APG-115 50 mg/kg
[6] = Compound 6 100 mg/kg qd, alone or with APG-115 50 mg/kg

| Compound | IC50 [1] [nM] | antitumor effect in words [2] | RTV on day 11 after administration [2, 4] | T/C (%) value on day 11 after administration [2, 4] [%] | Response rate @D 22: mPD (progressive disease) [3] | Best response rate: mPD (progressive disease) [3] | RTV @ D 22 [3] | T/C (%) @ D 22 [3] [%] | RTV on day 11 after administration [2, 5] | T/C (%) value on day 11 after administration [2, 5] [%] | RTV on day 11 after administration [2, 6] | T/C (%) value on day 11 after administration [2, 6] [%] |
| --- | --- | --- | --- | --- | --- | --- | --- | --- | --- | --- | --- | --- |
| CCN1[C@@H](C(=O)NC23CCC(C(=O)O)(CC2)CC3)[C@H](c2cccc(Cl)c2F)[C@]2(C(=O)Nc3cc(Cl)ccc32)C12CCCCC2 [APG-115] | 1960 | did not exhibit tumor growth inhibition | 12.5 ± 2.5 | 69 | 6/6 mPD | 6/6 mPD | 9.2 ± 2.3 | 67.1 | – | – | – | – |
| O=C(NS(=O)(=O)c1ccc(NC[C@H]2COCCO2)c([N+](=O)[O-])c1)c1ccc(N2CCN(CC3=C(c4ccc(Cl)cc4)CC4(CCC4)CC3)CC2)cc1Oc1cnc2[nH]ccc2c1 [Compound 6, (S)-N-((4-(((1,4-dioxan-2-yl)methyl)amino)-3-nitrophe-nyl)sulfonyl)-2-((1H-pyrrolo[2,3-b]pyridin-5-yl)oxy)-4-(4-((6-(4-chlorophenyl)spiro[3.5]non-6-en-7-yl)meth-yl)piperazin-1-yl)benzamide] | 84.7 | did not exhibit tumor growth inhibition | – | – | 6/6 mPD | 6/6 mPD | 7.5 ± 0.9 | 55.1 | 16.2 ± 2.3 | 90 | 13.0 ± 1.9 | 72 |
